The record followed here is patent publication US11534283B2 (priority 2017, dated 2022).

“Also recorded” adds a separate entry of the source.

The test system of one data set is adult mouse cortex. The note with it: in vivo.
Data set [1] has as its system cells labeled adjacent the implantation site in the adult mouse cortex. It is filed as cell-based.
Experimental: Implantable devices were filled with α-bungarotoxin fused to the dye Alexa Fluor 555 (α-BTX Alexa 555) in PBS at a concentration of 0.3 mg/mL. Animals were treated with the implantable device for 2 hours prior to sacrifice. Tissues were prepared for live cell electrophysiology assays (patch clamp) and fluorescence imaging.
Implantable devices filled with fluorescently labeled α-bungarotoxin (α-BTX) were implanted and the release was studied via imaging and live cell electrophysiology assays.

For α-bungarotoxin [α-BTX-Alexa 555], in the data set with adult mouse cortex, the “labeling of individual cells (uptake)” value was “individual cells were clearly labeled; also recorded: labeling individual cells” and the “localization of fluorescence after release from the implantable device” value is listed as “local to the implantation site; also recorded: adjacent the implantation site”. The “electrophysiological response of the α-BTX labeled cell to agonist AR-R17779” value in data set [1] is given as “no activity”.

`O=C1NCC2(CN3CCC2CC3)O1` (stereo not shown) [AR-R17779]: the “electrophysiological activity of agonist AR-R17779 in the control group” value in data set [1] (cells labeled with control (Alexa 555) released from the device, patch clamp) is on record as “inhibitory activity”.
